Data taken from patent US4501748A, “1,4-Dihydropyridine derivatives” (Kyowa Hakko Kogyo Co., Ltd., priority 1983, dated 1985).
Where a name gives a salt, the structure may show the parent alone.

Assays:
[1] = tested on: Spontaneously hypertensive rat (SHR); test: Hypotensive effect: intravenous administration to SHR (no anesthesia); assay type: in vivo, Okamoto strain, male); conditions: 5 animals
Description: (1.) Intravenous Administration to SHR (no anesthesia)
Spontaneously hypertensive rat (SHR) (Okamoto strain, aging 20 to 30 weeks, male) were anesthetized with sodium thiopental (50 mg/kg, ip). A cannula for measuring blood pressure was inserted into the descending aorta from the right femoral artery and a cannula for intravenous administration was inserted into the left carotid vein, and these cannulas were fixed on the […], respectively. Change in blood pressure by intravenous administration of each of drugs were measured next day without any anesthesia. As the drugs, a solution of each of the drugs in polyethylene glycol 400 was intravenously administered at the dose of 0.1 ml/100 g body weight of the rat.

[2] = Acute toxicity, oral administration to mice (survival rate 72 hours after administration); assay type: in vivo, mice (ddY type; conditions: mouse, in vivo, mice ddY male
Description: (§1) Drugs were compulsorily orally administered to mice (ddY type, body weight of 20 to 24 g, male) and the survival rate 72 hours after the administration was studied. A suspension of each of the drugs in water having added a small quantity of Tween 80 thereto was orally given at the dose of 0.1 ml/10 g mouse body weight, using a gastric tube.

[3] = tested on: Spontaneously hypertensive rat (SHR); test: Hypotensive effect: oral administration to SHR (no anesthesia), plethysmographic tail method; assay type: in vivo, Okamoto Strain, male)
Description: (2) Oral Administration to SHR (no anesthesia)
Change in systolic blood pressure when drugs were orally administered to spontaneously hypertensive rat (SHR) (Okamoto Strain, aging 15 to 26 weeks, male) was measured by the plethysmographic tail method (Ueda Seisakusho, USM-105R).
Drugs were compulsorily orally administered at the dose of 0.5 ml/100 g body weight of the rat in the form of a suspension in 0.3% carboxymethyl cellulose, using a gastric tube.

[4] = LD50 in the oral administration in male rats; conditions: rat, in vivo
[5] = tested on: mice; test: Acute toxicity, oral administration to mice (survival rate 72 hours after administration); assay type: in vivo, mice (ddY type; conditions: mice ddY male, hydrochloride, 4320 min
Description: as §1

[6] = Hypotensive effect (general statement); assay type: in vivo; conditions: among the (±)-α-form

## COC(=O)C1=C(C)NC(C)=C(C(=O)OC2CCCN(Cc3ccccc3)C2)C1c1cccc([N+](=O)[O-])c1 (racemic) [(±)-α-form, (±)-2,6-dimethyl-4-(3-nitrophenyl)-1,4-dihydropyridine-3,5-dicarboxylicacid-3-(1-benzyl-3-piperidyl)ester-5-methyl ester]
[1]; 1 μg/kg i.v.
  Maximum Decrease in Mean Blood Pressure: 23.1 ± 6.4 mmHg
[1]; 10 μg/kg i.v.
  Maximum Decrease in Mean Blood Pressure: 45.6 ± 6.5 mmHg
[2]
  LD50 at 72 h: 218 mg/kg
[3]; 1 mg/kg p.o., 8 animals
  Maximum Decrease in Systolic Blood Pressure: 35.6 ± 6.3 mmHg

## COC(=O)C1=C(C)NC(C)=C(C(=O)OC2CCCN(Cc3ccccc3)C2)C1c1cccc([N+](=O)[O-])c1 (single isomer, unassigned) [(+)-α-form, (+)-α-2,6-dimethyl-4-(3-nitrophenyl)-1,4-dihydropyridine-3,5-dicarboxylic acid-3-(1-benzyl-3-piperidyl)ester-5-methyl ester hydrochloride]
[4]
  LD50: 95 mg/kg
[1]; 1 μg/kg i.v.
  Maximum Decrease in Mean Blood Pressure: 42.2 ± 11.5 mmHg
[1]; 10 μg/kg i.v., hydrochloride
  Maximum Decrease in Mean Blood Pressure: 67.4 ± 4.7 mmHg
[5]
  Acute Toxicity LD50: 95 mg/kg
[3]; 1 mg/kg p.o., 8 animals
  Maximum Decrease in Systolic Blood Pressure: 56.3 ± 13.0 mmHg
[6]
  hypotensive effect: excellent hypotensive effect

## COC(=O)C1=C(C)NC(C)=C(C(=O)OC2CCCN(Cc3ccccc3)C2)C1c1cccc([N+](=O)[O-])c1 (single isomer, unassigned) [(-)-α-form, (-)-α-2,6-dimethyl-4-(3-nitrophenyl)-1,4-dihydropyridine-3,5-dicarboxylic acid-3-(1-benzyl-3-piperidyl)ester-5-methyl ester hydrochloride]
[1]; 10 μg/kg i.v., hydrochloride
  Maximum Decrease in Mean Blood Pressure: 23.4 ± 7.9 mmHg
[1]; 100 μg/kg i.v.
  Maximum Decrease in Mean Blood Pressure: 27.3 ± 6.1 mmHg
[5]
  Acute Toxicity LD50: 918 mg/kg
[3]; 3 mg/kg p.o., 4 animals
  Maximum Decrease in Systolic Blood Pressure: 22.5 ± 9.6 mmHg
[3]; 10 mg/kg p.o., 4 animals
  Maximum Decrease in Systolic Blood Pressure: 30.0 ± 5.3 mmHg
